# Values joined by “and” are separate entries in the source; they are usually repeats but may differ in a detail not shown here. Identical values can stand only once. Like-named read-outs stand apart in the source and are kept apart here.
# Columns and labels:
# [1] = biological target: T1, H. sapiens eIF4A1 Phe163Gly (Homo sapiens, UniProt P60842, F163G); test: Fluorescence polarization assay, FAM-labeled [AG]10 RNA and recombinant eIF4A; type: binding
# T1 construct: His tag (N); made in house; host or cells: E. coli BL21 Star (DE3)
# Experimental: (§1) The fluorescence polarization assay was performed as previously described ([Chen et al., 2021]). […] After incubation at room temperature for 30 min, the mixture was transferred to a black 384-well microplate (Corning), and the fluorescence polarization was measured by an Infinite F-200 PRO (Tecan). Under ADP + Pi conditions, 1 mM ADP (Fujifilm Wako Chemicals) and 1 mM Na2HPO4 were used as substitutes for AMP-PNP. The data were fitted to the Hill equation to calculate Kd values and visualized by Igor Pro v8.01 (WaveMetrics).
# [2] = biological target: T2, O. sinensis eIF4A WT His154 (Ophiocordyceps sinensis, UniProt A0A8H4LTQ8); test: as above; type: binding; details: for Kd: [AG]10 10 nM, compound 50 µM, read-out: Kd between eIF4A protein and RNA
# T2 sequence (A0A8H4LTQ8 1-397): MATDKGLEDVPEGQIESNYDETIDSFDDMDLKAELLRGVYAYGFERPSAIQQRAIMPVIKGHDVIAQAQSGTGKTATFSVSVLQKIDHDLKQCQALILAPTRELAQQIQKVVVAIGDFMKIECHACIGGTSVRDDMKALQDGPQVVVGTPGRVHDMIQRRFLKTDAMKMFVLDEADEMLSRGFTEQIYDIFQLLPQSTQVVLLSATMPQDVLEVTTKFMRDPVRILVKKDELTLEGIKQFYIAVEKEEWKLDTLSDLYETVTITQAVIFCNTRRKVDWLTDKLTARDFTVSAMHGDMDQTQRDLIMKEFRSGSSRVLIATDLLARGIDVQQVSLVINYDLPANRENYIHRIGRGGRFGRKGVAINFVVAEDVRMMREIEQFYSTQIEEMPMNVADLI
# Experimental: as §1
# [3] = [AG]10, ADP + Pi, RocA 50 µM, protein 0.01 μM
# [4] = [AG]10, ADP + Pi, RocA 50 µM, protein 0.05 μM
# [5] = [AG]10, ADP + Pi, RocA 50 µM, protein 0.075 μM
# [6] = [AG]10, ADP + Pi, RocA 50 µM, protein 0.1 μM
# [7] = [AG]10, ADP + Pi, RocA 50 µM, protein 0.5 μM
# [8] = [AG]10, ADP + Pi, RocA 50 µM, protein 0.75 μM
# [9] = [AG]10, ADP + Pi, RocA 50 µM, protein 1 μM
# [10] = [AG]10, ADP + Pi, RocA 50 µM, protein 5 μM
# [11] = [AG]10, ADP + Pi, RocA 50 µM, protein 7.5 μM
# [12] = [AG]10, ADP + Pi, RocA 50 µM, protein 10 μM
# [13] = [AG]10, ADP + Pi, RocA 50 µM, protein 25 μM
# [14] = [AG]10, ADP + Pi, RocA 50 µM, protein 50 μM
# [15] = [AG]10 RNA, AMP-PNP, RocA, protein concentration 0.01 μM
# [16] = [AG]10 RNA, AMP-PNP, RocA, protein concentration 0.05 μM
# [17] = [AG]10 RNA, AMP-PNP, RocA, protein concentration 0.075 μM
# [18] = [AG]10 RNA, AMP-PNP, RocA, protein concentration 0.1 μM
# [19] = [AG]10 RNA, AMP-PNP, RocA, protein concentration 0.5 μM
# [20] = [AG]10 RNA, AMP-PNP, RocA, protein concentration 0.75 μM
# [21] = [AG]10 RNA, AMP-PNP, RocA, protein concentration 1 μM
# [22] = [AG]10 RNA, AMP-PNP, RocA, protein concentration 5 μM
# [23] = [AG]10 RNA, AMP-PNP, RocA, protein concentration 7.5 μM
# [24] = [AG]10 RNA, AMP-PNP, RocA, protein concentration 10 μM
# [25] = [AG]10 RNA, AMP-PNP, RocA, protein concentration 25 μM
# [26] = [AG]10 RNA, AMP-PNP, RocA, protein concentration 50 μM
# T1 sequence (P60842 whole entry F163G): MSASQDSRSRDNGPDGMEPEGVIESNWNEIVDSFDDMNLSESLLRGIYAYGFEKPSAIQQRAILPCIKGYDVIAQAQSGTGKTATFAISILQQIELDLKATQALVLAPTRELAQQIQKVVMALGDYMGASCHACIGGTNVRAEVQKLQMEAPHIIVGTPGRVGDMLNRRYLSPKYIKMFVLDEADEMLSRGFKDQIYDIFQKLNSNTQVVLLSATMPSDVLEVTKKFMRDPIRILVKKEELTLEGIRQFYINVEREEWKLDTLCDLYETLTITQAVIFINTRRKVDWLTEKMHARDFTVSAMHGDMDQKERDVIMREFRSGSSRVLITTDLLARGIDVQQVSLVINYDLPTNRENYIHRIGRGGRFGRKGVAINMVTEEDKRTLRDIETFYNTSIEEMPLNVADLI
smiles,measurement,setting,value
"COc1ccc([C@@]23Oc4cc(OC)cc(OC)c4[C@]2(O)[C@H](O)[C@H](C(=O)N(C)C)[C@H]3c2ccccc2)cc1 [RocA, rocaglamide A]","fluorescence polarization, Mean",[1]; [3],0.04918
same,"fluorescence polarization, replicates",[1]; [3],0.1421 and 0.05191 and -0.04645
same,"fluorescence polarization, Mean",[1]; [4],0.02732
same,"fluorescence polarization, replicates",[1]; [4],0.2322 and -0.03005 and -0.1202
same,"fluorescence polarization, Mean",[1]; [5],-0.02459
same,"fluorescence polarization, replicates",[1]; [5],0.06011 and -0.02186 and -0.112
same,"fluorescence polarization, Mean",[1]; [6],-0.01913
same,"fluorescence polarization, replicates",[1]; [6],-0.03005 and -0.01366 (2×)
same,"fluorescence polarization, Mean",[1]; [7],-0.02459
same,"fluorescence polarization, replicates",[1]; [7],0.0765 and 0.04372 and -0.194
same,"fluorescence polarization, Mean",[1]; [8],-0.02459
same,"fluorescence polarization, replicates",[1]; [8],0.1831 and -0.05465 and -0.2022
same,"fluorescence polarization, Mean",[1]; [9],-0.01913
same,"fluorescence polarization, replicates",[1]; [9],0.1093 and -0.06284 and -0.1038
same,"fluorescence polarization, Mean",[1]; [10],0.224
same,"fluorescence polarization, replicates",[1]; [10],0.3634 and 0.224 and 0.0847
same,"fluorescence polarization, Mean",[1]; [11],0.1721
same,"fluorescence polarization, replicates",[1]; [11],0.3798 and 0.03552 and 0.1011
same,"fluorescence polarization, Mean",[1]; [12],0.276
same,"fluorescence polarization, replicates",[1]; [12],0.3962 and 0.1585 and 0.2732
same,"fluorescence polarization, Mean",[1]; [13],0.5137
same,"fluorescence polarization, replicates",[1]; [13],0.7404 and 0.5273 and 0.2732
same,"fluorescence polarization, Mean",[1]; [14],0.582
same,"fluorescence polarization, replicates",[1]; [14],0.7568 and 0.5437 and 0.4454
same,"Fluorescence polarization, Replicate 1-3",[1]; [15],0.04918 and -0.08197 and -0.1475
same,"fluorescence polarization, Mean",[1]; [15],-0.06011
same,"Fluorescence polarization, Replicate 1-3",[1]; [16],0.1311 and -0.09016 and -0.09836
same,"fluorescence polarization, Mean",[1]; [16],-0.01913
same,"Fluorescence polarization, Replicate 1-3",[1]; [17],-0.04098 and -0.1393 and -0.09836
same,"fluorescence polarization, Mean",[1]; [17],-0.0929
same,"Fluorescence polarization, Replicate 1-3",[1]; [18],0.07377 and 0.02459 and -0.06557
same,"fluorescence polarization, Mean",[1]; [18],0.01093
same,"Fluorescence polarization, Replicate 1-3",[1]; [19],0.5984 and 0.4918 and 0.4016
same,"fluorescence polarization, Mean",[1]; [19],0.4973
same,"Fluorescence polarization, Replicate 1-3",[1]; [20],0.4508 and 0.2049 and 0.1148
same,"fluorescence polarization, Mean",[1]; [20],0.2568
same,"Fluorescence polarization, Replicate 1-3",[1]; [21],0.5082 and 0.3689 (2×)
same,"fluorescence polarization, Mean",[1]; [21],0.4153
same,"Fluorescence polarization, Replicate 1-3",[1]; [22],0.7131 and 0.7705 and 0.7541
same,"fluorescence polarization, Mean",[1]; [22],0.7459
same,"Fluorescence polarization, Replicate 1-3",[1]; [23],0.6393 and 0.6721 and 0.5902
same,"fluorescence polarization, Mean",[1]; [23],0.6339
same,"Fluorescence polarization, Replicate 1-3",[1]; [24],0.7951 and 0.7459 and 0.7705
same,"fluorescence polarization, Mean",[1]; [24],0.7705
same,"Fluorescence polarization, Replicate 1-3",[1]; [25],0.7623 and 0.7213 and 0.6639
same,"fluorescence polarization, Mean",[1]; [25],0.7158
same,"Fluorescence polarization, Replicate 1-3",[1]; [26],0.9016 and 0.7623 and 0.7787
same,"fluorescence polarization, Mean",[1]; [26],0.8142
same,Kd,[2]; ADP + Pi (1 mM each),~110 nM and 110 nM
same,Kd,[2]; AMP-PNP 1 mM,90 ± 14 nM
same,"fluorescence polarization, replicates",[2]; [3],0.1995
same,"fluorescence polarization, Mean",[2]; [4],0.4699
same,"fluorescence polarization, replicates",[2]; [4],0.5109 and 0.4536
same,"fluorescence polarization, Mean",[2]; [5],0.6066
same,"fluorescence polarization, replicates",[2]; [5],0.6585
same,"fluorescence polarization, Mean",[2]; [6],0.7049
same,"fluorescence polarization, replicates",[2]; [6],0.7732 and 0.6667
same,"fluorescence polarization, Mean",[2]; [7],1.713
same,"fluorescence polarization, replicates",[2]; [7],1.781 and 1.675 and 1.683
same,"fluorescence polarization, Mean",[2]; [8],1.757
same,"fluorescence polarization, replicates",[2]; [8],1.724 (2×) and 1.8224
same,"fluorescence polarization, Mean",[2]; [9],1.82
same,"fluorescence polarization, replicates",[2]; [9],1.8224 (2×) and 1.814
same,"fluorescence polarization, Mean",[2]; [10],1.888
same,"fluorescence polarization, replicates",[2]; [10],1.913 and 1.872 and 1.88
same,"fluorescence polarization, Mean",[2]; [11],1.883
same,"fluorescence polarization, replicates",[2]; [11],1.855 and 1.904 and 1.888
same,"fluorescence polarization, Mean",[2]; [12],1.893
same,"fluorescence polarization, replicates",[2]; [12],1.921 and 1.896 and 1.863
same,"fluorescence polarization, Mean",[2]; [13],1.861
same,"fluorescence polarization, replicates",[2]; [13],1.863 and 1.913 and 1.806
same,"fluorescence polarization, Mean",[2]; [14],1.801
same,"fluorescence polarization, replicates",[2]; [14],1.814 and 1.798 and 1.79
same,"Fluorescence polarization, Replicate 1-3",[2]; [15],0.1557 and 0
same,"fluorescence polarization, Mean",[2]; [15],0.09016
same,"Fluorescence polarization, Replicate 1-3",[2]; [16],0.5246 (2×) and 0.418
same,"fluorescence polarization, Mean",[2]; [16],0.4891
same,"Fluorescence polarization, Replicate 1-3",[2]; [17],0.5328 and 0.6803
same,"fluorescence polarization, Mean",[2]; [17],0.6175
same,"Fluorescence polarization, Replicate 1-3",[2]; [18],0.8689 and 0.8033 and 0.7049
same,"fluorescence polarization, Mean",[2]; [18],0.7923
same,"Fluorescence polarization, Replicate 1-3",[2]; [19],1.713 (2×) and 1.631
same,"fluorescence polarization, Mean",[2]; [19],1.686
same,"Fluorescence polarization, Replicate 1-3",[2]; [20],1.795 and 1.7459 and 1.77
same,"fluorescence polarization, Mean",[2]; [20],1.77
same,"Fluorescence polarization, Replicate 1-3",[2]; [21],1.861 and 1.836 and 1.779
same,"fluorescence polarization, Mean",[2]; [21],1.825
same,"Fluorescence polarization, Replicate 1-3",[2]; [22],1.787 and 1.828 and 1.811
same,"fluorescence polarization, Mean",[2]; [22],1.809
same,"Fluorescence polarization, Replicate 1-3",[2]; [23],1.869 and 1.877 and 1.844
same,"fluorescence polarization, Mean",[2]; [23],1.863
same,"Fluorescence polarization, Replicate 1-3",[2]; [24],1.836 and 1.7459 and 1.795
same,"fluorescence polarization, Mean",[2]; [24],1.792
same,"Fluorescence polarization, Replicate 1-3",[2]; [25],1.902 and 1.77 and 1.779
same,"fluorescence polarization, Mean",[2]; [25],1.817
same,"Fluorescence polarization, Replicate 1-3",[2]; [26],1.852 and 1.787 and 1.77
same,"fluorescence polarization, Mean",[2]; [26],1.803

# Reference: publication PMC9977294, “A parasitic fungus employs mutated eIF4A to survive on rocaglate-synthesizing Aglaia plants” (eLife, 2023)
